Read-outs that look alike come from different tables or passages of the source.
Experiments:
phospho-Aurora A (T288) = test: Immunohistochemistry of BEL-7402 tumors, Aurora kinase A activity marker; assay type: in vivo, BALB/C nu/nu nude mice; details: BEL-7402 tumors from efficacy study
Experimental: The 8 µm paraffin embedded tumor tissue slides prepared from tumor of in vivo efficacy studies were heated in a dry oven at 60°C for 1 hour, then deparaffinized and hydrolyzed by Leica autostainer XL ST5010 at room temperature. Antigen retrieval was carried out at 95∼99°C in citrate buffer (0.01 M, pH 6.0) heated by a medical microwave at 92–98°C for 5 min, then cooled down to room temperature. Then peroxidase-blocking reagent (DAKO, DK-2600, Glostrup Denmark) was applied to quench the endogenous peroxidase. The slides were incubated in blocking serum for 20 min, then covered by 100 µL phospho-Aurora A (Thr288) (C39D8) rabbit mAb (CST #3079, 1∶200 in TBS/T) or rabbit anti-human CD31 polyclonal antibody (Santa Cruz Biotech, sc-8306, Santa Cruz, CA, USA; 1∶200 in TBS/T) at 4°C overnight, then incubated in 100 µL DAKO Envision+/HRP, rabbit/mouse after being washed thoroughly with TBS. One hundred micro liters of substrate-chromogenic solution (DAB) were applied to the slides and incubated at room temperature for 10 min. The slides were rinsed gently with tap water for 15 min. Counterstain and dehydration was performed by XL ST5010 at room temperature. Finally, the slides were mounted with Permount mounting medium (Fisher Scientific, Miami, FL).

BGC-823 xenograft = test: Xenograft efficacy study; assay type: in vivo, BALB/C nu/nu nude mice
Experimental: Tumor cells were inoculated into the right flank of BALB/C nu/nu female nude mice (5∼6 weeks, 16∼18 g, obtained from Sino-British SIPPR/BK Lab. Animal Ltd, Shanghai, China) at optimal density based on our in-house validation study. After the tumor was established and reached 100∼150 mm^3, the mice were randomized into ten mice per group and received treatment according to the schedule. The tumor growth was recorded three times a week with the measurement of length (L) and width (W) by caliper, and calculated as tumor volume (TV, mm^3) = 0.5*L*W*W (mm). […] The tumor regression of individual mouse was defined - the tumor volume at the end was less than the tumor volume when treatment was initiated.

[1] = Plasma and tumor exposure at steady state in xenograft-bearing mice; assay type: in vivo, nude mice; parameters: Tumor AUC @ SS: unit not given here; details: for AUC: nude, mouse, po, read-out: Plasma AUC @ SS
Excerpt: Supplementary file pone.0065264.s004.doc: Table S3 ED60/90 estimation from the R1498 exposure at steady state in tumors. The exposure in plasma and tumor at steady state were plot against tumor growth inhibiton rate to estimate the ED60/E90 doses. (DOC) Click here for additional data file.

**Q.** For COc1ccc2c(c1)C(c1ccccc1Cl)=Nc1c(n[nH]c1C)N2 [R1498], which “phospho-Aurora A (T288) staining in tumors” value (phospho-Aurora A (T288)) is on record?
**A.** Its value is “weaker staining”.

**Q.** What about the “Final TGI%” value (BGC-823 xenograft; BGC-823, 25 mg/kg twice a day per oral gavage, day of study termination (Table S2)) of the same compound?
**A.** Its value is 94%.

**Q.** And the Body weight changes% (BGC-823 xenograft; BGC-823, 25 mg/kg twice a day per oral gavage, before vs after treatment)?
**A.** The Body weight changes% was 2%.

**Q.** What about the “Tumor Regression” value (BGC-823 xenograft; BGC-823, 25 mg/kg twice a day per oral gavage, mice with regression/group) of the same compound?
**A.** Its value is 0/10.

**Q.** And the “Final TGI%” value (BGC-823 xenograft; BGC-823, 6.25 mpk, bid, PO)?
**A.** Its value is 78%.

**Q.** And the “Final TGI%” value (BGC-823 xenograft; BGC-823, 12.5 mpk, bid, PO)?
**A.** The value was 88%.

**Q.** What about the “Final TGI%” value (BGC-823 xenograft; BGC-823, 25 mpk, bid, PO (Table S3)) of the same compound?
**A.** The value was 94%.

**Q.** What about the “Tumor AUC @ SS” value ([1]; BEL-7402, 3.125 mpk, bid, PO) of the same compound?
**A.** Its value is 2219.

**Q.** And the “Tumor AUC @ SS” value ([1]; BEL-7402, 6.25 mpk, bid, PO)?
**A.** Its value is 6713.

**Q.** What about the “Tumor AUC @ SS” value ([1]; BEL-7402, 12.5 mpk, bid, PO) of the same compound?
**A.** Its value is 23886.

**Q.** And the “Tumor AUC @ SS” value ([1]; BEL-7404, 3.125 mpk, bid, PO)?
**A.** Its value is 9251.

**Q.** And the “Tumor AUC @ SS” value ([1]; BEL-7404, 6.25 mpk, bid, PO)?
**A.** Its value is 17558.

**Q.** And the “Tumor AUC @ SS” value ([1]; BEL-7404, 12.5 mpk, bid, PO)?
**A.** Its value is 37142.

**Q.** And the “Tumor AUC @ SS” value ([1]; BEL-7404, 12.5 mpk, single dose, PO (PK arm))?
**A.** Its value is 30996.

**Q.** And the “Tumor AUC @ SS” value ([1]; BGC-823 (model cell empty, from line above), 25 mpk, single dose, PO (PK arm))?
**A.** The value was 49597.

**Q.** And the “Tumor AUC @ SS” value ([1]; BGC-823, 6.25 mpk, bid, PO)?
**A.** Its value is 9906.

**Q.** And the “Tumor AUC @ SS” value ([1]; BGC-823, 12.5 mpk, bid, PO)?
**A.** The value was 39971.

**Q.** What about the “Tumor AUC @ SS” value ([1]; BGC-823, 25 mpk, bid, PO) of the same compound?
**A.** Its value is 70897.

**Q.** And the “Tumor AUC @ SS” value ([1]; SGC-7901 (model cell empty, from line above), 25 mpk, single dose, PO (PK arm))?
**A.** Its value is 147592.

**Q.** And the “Tumor AUC @ SS” value ([1]; SGC-7901, 6.25 mpk, bid, PO)?
**A.** Its value is 25249.

**Q.** And the “Tumor AUC @ SS” value ([1]; SGC-7901, 12.5 mpk, bid, PO)?
**A.** The value was 48130.

**Q.** What about the “Tumor AUC @ SS” value ([1]; SGC-7901, 25 mpk, bid, PO) of the same compound?
**A.** Its value is 78767.

**Q.** What about the AUC ([1]; in vivo, 12.5 mg/kg, BEL-7402, 12.5 mpk, bid, PO) of the same compound?
**A.** Its AUC is 26100 ng·h/mL.

**Q.** What about the AUC ([1]; in vivo, 12.5 mg/kg, BEL-7404, 12.5 mpk, bid, PO) of the same compound?
**A.** Its AUC is 21600 ng·h/mL.

**Q.** And the AUC ([1]; in vivo, 12.5 mg/kg, BEL-7404, 12.5 mpk, single dose, PO (PK arm))?
**A.** Its AUC is 15200 ng·h/mL.

**Q.** What about the AUC ([1]; in vivo, 12.5 mg/kg, BGC-823, 12.5 mpk, bid, PO) of the same compound?
**A.** Its AUC is 31100 ng·h/mL.

**Q.** And the AUC ([1]; in vivo, 12.5 mg/kg, SGC-7901, 12.5 mpk, bid, PO)?
**A.** Its AUC is 26900 ng·h/mL.

**Q.** And the AUC ([1]; plasma, 3.125 mg/kg, BEL-7402, 3.125 mpk, bid, PO)?
**A.** Its AUC is 5380 ng·h/mL.

**Q.** What about the AUC ([1]; plasma, 3.125 mg/kg, BEL-7404, 3.125 mpk, bid, PO) of the same compound?
**A.** The AUC was 3560 ng·h/mL.

**Q.** And the AUC ([1]; plasma, 6.25 mg/kg, BEL-7402, 6.25 mpk, bid, PO)?
**A.** The AUC was 12600 ng·h/mL.

**Q.** What about the AUC ([1]; plasma, 6.25 mg/kg, BEL-7404, 6.25 mpk, bid, PO) of the same compound?
**A.** Its AUC is 6560 ng·h/mL.

**Q.** And the AUC ([1]; plasma, 6.25 mg/kg, BGC-823, 6.25 mpk, bid, PO)?
**A.** The AUC was 10800 ng·h/mL.

**Q.** What about the AUC ([1]; plasma, 6.25 mg/kg, SGC-7901, 6.25 mpk, bid, PO) of the same compound?
**A.** The AUC was 11400 ng·h/mL.

**Q.** And the AUC ([1]; plasma, 25 mg/kg, BGC-823 (model cell empty, from line above), 25 mpk, single dose, PO (PK arm))?
**A.** The AUC was 73300 ng·h/mL.

**Q.** And the AUC ([1]; plasma, 25 mg/kg, BGC-823, 25 mpk, bid, PO)?
**A.** Its AUC is 43300 ng·h/mL.

**Q.** And the AUC ([1]; plasma, 25 mg/kg, SGC-7901 (model cell empty, from line above), 25 mpk, single dose, PO (PK arm))?
**A.** Its AUC is 70100 ng·h/mL.

**Q.** And the AUC ([1]; plasma, 25 mg/kg, SGC-7901, 25 mpk, bid, PO)?
**A.** The AUC was 47900 ng·h/mL.
